Test: MARIPOSA Phase 3, adverse events
Assay type: in vivo, human
Source text: • 1. […] Incidence and Severity of Adverse Events (AEs) [Time Frame: Up to approximately 60 months]. Incidence and severity of treatment emergent adverse events (TEAEs) will be reported. Any adverse event occurring at or after the initial administration of study treatment through the day of last dose plus 30 days, or until the start of subsequent anticancer therapy (if earlier), is considered to be treatment emergent. • 8. Number of Participants with Clinical Laboratory Abnormalities [Time Frame: Up to approximately 60 months]. Number of participants with clinical laboratory abnormalities (serum chemistry, hematology, blood coagulation, and urine samples) will be reported. • 9. Number of Participants with Vital Signs Abnormalities [Time Frame: Up to approximately 60 months]. Number of participants with vital signs abnormalities (temperature, heart rate, respiratory rate, oxygen saturation, blood pressure) will be reported. • 10. Number of Participants with Physical Examination Abnormalities [Time Frame: Up to approximately 60 months]. Number of participants with physical examination abnormalities will be reported. • 11. […] The NSCLC-SAQ contains 7 items that assess cough, pain, dyspnea, fatigue, and poor appetite over a 7-day recall period. Each multi-item scale and individual item will be summarized using count and percent by visit. • 15. […] EORTC-QLQ-C30 is a core 30-item questionnaire for evaluating the health-related quality of life (HRQOL) of participants participating in cancer clinical studies. • 16.

[1] = TEAE leading to dose reductions of any study agent
[2] = TEAE leading to interruptions of any study agent
[3] = adverse events, listed as osimertinib
[4] = pneumonitis and interstitial lung disease

C=CC(=O)Nc1cc(Nc2nccc(-c3cn(C)c4ccccc34)n2)c(OC)cc1N(C)CCN(C)C [Osimertinib]
Skin lesion [1]: 0 no. (%) | Stomatitis [1]: 0 no. (%) | Asthenia [2]: 1 (0.2) no. (%) | COVID-19 [2]: 36 (8) no. (%) | Deep vein thrombosis [2]: 2 (0.5) no. (%) | Dermatitis acneiform [2]: 1 (0.2) no. (%) | Diarrhea [2]: 6 (1) no. (%) | Hypoalbuminemia [2]: 0 no. (%) | Increased alanine aminotransferase [2]: 12 (3) no. (%) | Increased aspartate aminotransferase [2]: 11 (3) no. (%) | Increased γ-glutamyltransferase [2]: 5 (1) no. (%) | Paronychia [2]: 4 (1) no. (%) | Peripheral edema [2]: 0 no. (%) | Pneumonia [2]: 18 (4) no. (%) | Pulmonary embolism [2]: 9 (2) no. (%) | Rash [2]: 4 (1) no. (%) | Stomatitis [2]: 4 (1) no. (%) | Any venous thromboembolism event leading to death (VTE): 2 (0.5) no. (%) | Any venous thromboembolism event leading to discontinuation of any agent (VTE): 2 (0.5) no. (%) | Any venous thromboembolism event, Grade 1 (VTE): 0 no. (%) | Any venous thromboembolism event, Grade 2 (VTE): 24 (6) no. (%) | Any venous thromboembolism event, Grade 3 (VTE): 12 (3) no. (%) | Any venous thromboembolism event, Grade 4 (VTE): 1 (0.2) no. (%) | Any venous thromboembolism event, Grade 5 (VTE): 2 (0.5) no. (%) | Axillary vein thrombosis (VTE event): 0 no. (%) | Deep vein thrombosis (VTE event): 11 (3) no. (%) | Embolism (VTE event): 3 (1) no. (%) | Embolism venous (VTE event): 1 (0.2) no. (%) | Jugular vein thrombosis (VTE event): 0 no. (%) | Pelvic venous thrombosis (VTE event): 1 (0.2) no. (%) | Portal vein thrombosis (VTE event): 0 no. (%) | Post thrombotic syndrome (VTE event): 0 no. (%) | Pulmonary embolism (VTE event): 20 (5) no. (%) | Pulmonary infarction (VTE event): 0 no. (%) | Pulmonary thrombosis (VTE event): 1 (0.2) no. (%) | Sigmoid sinus thrombosis (VTE event): 0 no. (%) | Superficial vein thrombosis (VTE event): 0 no. (%) | Superior sagittal sinus thrombosis (VTE event): 0 no. (%) | Superior vena cava syndrome (VTE event): 1 (0.2) no. (%) | Thrombophlebitis (VTE event): 4 (1) no. (%) | Thrombosis (VTE event): 1 (0.2) no. (%) | Vena cava thrombosis (VTE event): 0 no. (%) | Venous thrombosis (VTE event): 1 (0.2) no. (%) | Venous thrombosis limb (VTE event): 1 (0.2) no. (%) | Any event leading to discontinuations of any study agent (adverse events): 58 (14) no. (%) | Any event leading to interruptions of any study agent (adverse events): 165 (39) no. (%) | Any event leading to reductions of any study agent (adverse events): 23 (5) no. (%) | Any event resulting in death (adverse events): 31 (7) no. (%) | Any serious event (adverse events): 143 (33) no. (%) | Grade ≥3 (adverse events): 183 (43) no. (%) | Any event (adverse events, safety population): 425 (99) no. (%) | Any event leading to discontinuations of any study agent [3]: 58 (14%) no. (%) | Any event leading to interruptions of any study agent [3]: 165 (39%) no. (%) | Any event leading to reductions of any study agent [3]: 23 (5%) no. (%) | Any event resulting in death [3]: 31 (7%) no. (%) | Interstitial lung disease/pneumonitis (any grade, both groups): 3% | Interstitial lung disease/pneumonitis, grade 3 or higher (both groups): 1% | Adverse events of grade 3 or higher (in vivo): 43% | Discontinuations of all agents due to treatment-related adverse events (in vivo): 3% | Receiving anticoagulation at time of first VTE (in vivo): 0% | Serious adverse events (in vivo): 33% | Venous thromboembolic (VTE) events (in vivo): 9% | VTE events in the first 4 months of treatment (of VTE events): 33% | First bleeding event while on anticoagulants (on anticoagulants): 14 (3) no. (%) | Recurrent venous thromboembolism event while on anticoagulants (on anticoagulants): 0 no. (%) | Anticoagulation concomitant use (on study): 81 (19) no. (%) | Interstitial lung disease, Duration of event, median no. of days (range) [4]: 20 (1-189) days | Interstitial lung disease, No. of days to first onset, median (range) [4]: 115 (9-512) days | Interstitial lung disease, No. of patients (%) [4]: 13 (3) no. (%) | Alanine aminotransferase increased (serious TEAE): 6 (1) no. (%) | COVID-19 (serious TEAE): 10 (2) no. (%) | Cardiac failure (serious TEAE): 5 (1) no. (%) | Deep vein thrombosis (serious TEAE): 2 (0.5) no. (%) | Dyspnea (serious TEAE): 11 (3) no. (%) | Hypoalbuminemia (serious TEAE): 0 no. (%) | Hyponatremia (serious TEAE): 4 (1) no. (%) | Infusion related reaction (serious TEAE): 0 no. (%) | Interstitial lung disease (serious TEAE): 5 (1) no. (%) | Pericardial effusion (serious TEAE): 5 (1) no. (%) | Pleural effusion (serious TEAE): 17 (4) no. (%) | Pneumonia (serious TEAE): 21 (5) no. (%) | Pneumonitis (serious TEAE): 8 (2) no. (%) | Pulmonary embolism (serious TEAE): 10 (2) no. (%) | Rash (serious TEAE): 0 no. (%) | Respiratory failure (serious TEAE): 2 (0.5) no. (%) | Any event (treatment-related AE): 378 (88) no. (%) | Any event resulting in death (treatment-related AE): 2 (0.5) no. (%) | Any serious event (treatment-related AE): 24 (6) no. (%) | Grade ≥3 (treatment-related AE): 59 (14) no. (%) | Decreased appetite (treatment-related AE, All): 40 (9) no. (%) | Dermatitis acneiform (treatment-related AE, All): 54 (13) no. (%) | Diarrhea (treatment-related AE, All): 149 (35) no. (%) | Dry skin (treatment-related AE, All): 54 (13) no. (%) | Hypoalbuminemia (treatment-related AE, All): 11 (3) no. (%) | Increased alanine aminotransferase (treatment-related AE, All): 38 (9) no. (%) | Increased aspartate aminotransferase (treatment-related AE, All): 34 (8) no. (%) | Infusion-related reaction (treatment-related AE, All): 0 no. (%) | Nausea (treatment-related AE, All): 32 (7) no. (%) | Paronychia (treatment-related AE, All): 115 (27) no. (%) | Peripheral edema (treatment-related AE, All): 10 (2) no. (%) | Pruritus (treatment-related AE, All): 63 (15) no. (%) | Rash (treatment-related AE, All): 121 (28) no. (%) | Stomatitis (treatment-related AE, All): 77 (18) no. (%) | Thrombocytopenia (treatment-related AE, All): 75 (18) no. (%) | Decreased appetite (treatment-related AE, Grade ≥3): 1 (0.2) no. (%) | Dermatitis acneiform (treatment-related AE, Grade ≥3): 0 no. (%) | Diarrhea (treatment-related AE, Grade ≥3): 2 (0.5) no. (%) | Dry skin (treatment-related AE, Grade ≥3): 1 (0.2) no. (%) | Hypoalbuminemia (treatment-related AE, Grade ≥3): 0 no. (%) | Increased alanine aminotransferase (treatment-related AE, Grade ≥3): 4 (1) no. (%) | Increased aspartate aminotransferase (treatment-related AE, Grade ≥3): 1 (0.2) no. (%) | Infusion-related reaction (treatment-related AE, Grade ≥3): 0 no. (%) | Nausea (treatment-related AE, Grade ≥3): 1 (0.2) no. (%) | Paronychia (treatment-related AE, Grade ≥3): 2 (0.5) no. (%) | Peripheral edema (treatment-related AE, Grade ≥3): 0 no. (%) | Pruritus (treatment-related AE, Grade ≥3): 1 (0.2) no. (%) | Rash (treatment-related AE, Grade ≥3): 3 (1) no. (%) | Stomatitis (treatment-related AE, Grade ≥3): 1 (0.2) no. (%) | Thrombocytopenia (treatment-related AE, Grade ≥3): 3 (1) no. (%)
